Experimental data taken from publication PMC9186373, “Design, synthesis, and biological evaluation of novel carbazole derivatives as potent DNMT1 inhibitors with reasonable PK properties” (Journal of Enzyme Inhibition and Medicinal Chemistry, 2022).

What was measured:
human DNMT1 = test: ELISA EpiQuik DNA methyltransferase (DNMT) activity/inhibitor assay; assay type: biochemical; conditions: for Inh% at 50 μM: 50 μM compound; for Inh% at 50 μM / Inh% at 100 μM: 200 nM purified DNMT1, EpiQuik kit; for Inh% at 100 μM: 100 μM compound; for DNMT1 inhibitory activity: SAR discussion of Table 1
Procedure: All the compounds were first screened using an ELISA EpiQuik DNA methyltransferase (DNMT) activity/inhibitor assay kit (Epigentek). To measure the effects of the compounds on human DNMT1 activity, 200 nM purified DNMT1 was incubated with 50 µM and 100 µM of the different compounds and S-adenosylmethionine in the DNMT assay buffer in the assay plate at 37 °C for 2 h[36]. Next, every sample was incubated with the capture and detection antibody, followed by incubation with developer solution for 10 min at room temperature. The absorbance was measured at 450 nm using a POLARstar Omega microplate reader (BMG). S-Adenosylhomocysteine (AdoHcy) was used as a positive control. Methylation inhibition assays for EZH2, LSD, and G9a were performed in modified Tris, pH 9.0, buffer using AlphaLisa technology. An amount of 10 µL of the reaction system contained a corresponding concentration of SAM (Sigma) (EZH2 50 µM, LSD 50 µM, and G9a 50 µM), which was the Km value in each enzymatic reaction, plus 100 nM biotinylated peptide H3 (1–21) (synthesis by GLChina) and the relevant enzyme concentration (0.03 nM EZH2, 0.03 nM LSD, and 0.03 nM G9a). The proteins were preincubated with various compound concentrations for 15 min at room temperature before the substrate and SAM were added. After 60 min of incubation at room temperature, acceptor and donor AlphaLisa beads were added according to the manufacturer’s recommendations. The signals were read in Alpha mode with an EnSpire multimode plate reader (PerkinElmer). IC50 values were derived by fitting the data for the inhibition percentage to a dose-response curve by non-linear regression in GraphPad Prism 5.0[20].
DNMT1 inhibition test was performed on 30 candidates to verify their biochemical activities. The EpiQuik DNA methyl-transferase (DNMT) activity/inhibitor assay kit (Epigentek) was used to identify the activity of synthetic compounds.

DNMT1 = DNMT1 (Homo sapiens, UniProt P26358); test: H3-labelled radioactive methylation assay; assay type: biochemical; conditions: H3-labeled radioactive methylation assay; 40 nM DNMT1
Procedure: The DNMT1 radioactive methylation inhibition assays were performed in 30 µL reactions containing 0.1 µM adenosyl-L-methionine S-[methyl-^3H] (^3H-SAM, ^15 Ci/mmol, PerkinElmer), 0.25 µg/mL poly (dI-dC)·poly (dI-dC) (Sigma), 40 nM DNMT1 in 50 mM Tris-HCl, pH 8.0, 1 mM DTT, 5% glycerol, and 100 µg/mL BSA. The proteins were preincubated with a range of compound concentrations for 15 min at room temperature before adding the substrate and [^3H] SAM. After 60 min of incubation at 37 °C, the reaction systems were transferred to a MultiScreen HTS filter plate (Millipore), and the plate was washed 3 times with doubly distilled H2O via a vacuum. The radioactivity was determined by liquid scintillation counting (MicroBeta, PerkinElmer). IC50 values were derived by fitting the data for the inhibition percentage to a dose-response curve by non-linear regression in GraphPad Prism 5.0.
To quantitatively analyse DNMT1 inhibitory effect, the H^3-labelled radioactive methylation assay was conducted to measure the methyltransferase activity of DNMT1 at a range of concentrations for these compounds.

PK study in SD rats = assay type: in vivo; conditions: rat, plasma, SD male rats; for AUC(0-t) / Tmax / half-life: mean ± SD (n = 3)
Procedure: In vivo pharmacokinetic properties of WK-22, WK-23, WK-27, and DC_517 were performed by Medicilon Company, Shanghai, China. SPF-grade SD male rats (8 groups, n = 3 rats per group) with a body weight of 230–260 g were purchased from Shanghai SIPPR-BK LAB Animal Ltd., Shanghai, China, and used for the pharmacokinetic analysis of the tested compounds. All animals were deprived of food overnight after the cannulation surgery. Subsequently, the tested compounds WK-23 and DC_517 were dissolved/suspended in 5% DMSO, 10% Solutol, and 85% water, and the tested compounds WK-22 and WK-27 were dissolved/suspended in 5% DMSO, 40% PEG400, and 55% saline for intravenous administration (i.v.) and oral administration (p.o.), respectively. A final dosage of 2.0 and 10.0 mg/kg rat of the formulated compounds was administered for i.v. and p.o. purposes, respectively, and the blood samples were taken at various time points during a 24 h period. At different time points, blood samples were collected from the femoral vein. The plasma samples were obtained after centrifugation (6800 g, 6 min, 2–8 °C) and stored at −80 °C until the assay. The AUC (area under concentration-time curve) was calculated through the trapezoidal rule with extrapolation to time infinity. The concentration of the compounds in the blood was analysed by LC-MS/MS (Shimadzu liquid chromatographic system and SCIEX Triple Quad 5500+ mass spectrometer, Applied Biosystems, Ontario, Canada). The Tmax, T1/2, and Cmax value was obtained through visual inspection of the plasma concentration-time curve. The Vss value was generated from DAS 3.2.8 software. The F value of WK-23 was calculated with the formula: F = (AUC p.o. × Dose i.v.)/(AUC i.v. × Dose p.o.) × 100%.

Chain of DNMT1 (P26358 whole entry): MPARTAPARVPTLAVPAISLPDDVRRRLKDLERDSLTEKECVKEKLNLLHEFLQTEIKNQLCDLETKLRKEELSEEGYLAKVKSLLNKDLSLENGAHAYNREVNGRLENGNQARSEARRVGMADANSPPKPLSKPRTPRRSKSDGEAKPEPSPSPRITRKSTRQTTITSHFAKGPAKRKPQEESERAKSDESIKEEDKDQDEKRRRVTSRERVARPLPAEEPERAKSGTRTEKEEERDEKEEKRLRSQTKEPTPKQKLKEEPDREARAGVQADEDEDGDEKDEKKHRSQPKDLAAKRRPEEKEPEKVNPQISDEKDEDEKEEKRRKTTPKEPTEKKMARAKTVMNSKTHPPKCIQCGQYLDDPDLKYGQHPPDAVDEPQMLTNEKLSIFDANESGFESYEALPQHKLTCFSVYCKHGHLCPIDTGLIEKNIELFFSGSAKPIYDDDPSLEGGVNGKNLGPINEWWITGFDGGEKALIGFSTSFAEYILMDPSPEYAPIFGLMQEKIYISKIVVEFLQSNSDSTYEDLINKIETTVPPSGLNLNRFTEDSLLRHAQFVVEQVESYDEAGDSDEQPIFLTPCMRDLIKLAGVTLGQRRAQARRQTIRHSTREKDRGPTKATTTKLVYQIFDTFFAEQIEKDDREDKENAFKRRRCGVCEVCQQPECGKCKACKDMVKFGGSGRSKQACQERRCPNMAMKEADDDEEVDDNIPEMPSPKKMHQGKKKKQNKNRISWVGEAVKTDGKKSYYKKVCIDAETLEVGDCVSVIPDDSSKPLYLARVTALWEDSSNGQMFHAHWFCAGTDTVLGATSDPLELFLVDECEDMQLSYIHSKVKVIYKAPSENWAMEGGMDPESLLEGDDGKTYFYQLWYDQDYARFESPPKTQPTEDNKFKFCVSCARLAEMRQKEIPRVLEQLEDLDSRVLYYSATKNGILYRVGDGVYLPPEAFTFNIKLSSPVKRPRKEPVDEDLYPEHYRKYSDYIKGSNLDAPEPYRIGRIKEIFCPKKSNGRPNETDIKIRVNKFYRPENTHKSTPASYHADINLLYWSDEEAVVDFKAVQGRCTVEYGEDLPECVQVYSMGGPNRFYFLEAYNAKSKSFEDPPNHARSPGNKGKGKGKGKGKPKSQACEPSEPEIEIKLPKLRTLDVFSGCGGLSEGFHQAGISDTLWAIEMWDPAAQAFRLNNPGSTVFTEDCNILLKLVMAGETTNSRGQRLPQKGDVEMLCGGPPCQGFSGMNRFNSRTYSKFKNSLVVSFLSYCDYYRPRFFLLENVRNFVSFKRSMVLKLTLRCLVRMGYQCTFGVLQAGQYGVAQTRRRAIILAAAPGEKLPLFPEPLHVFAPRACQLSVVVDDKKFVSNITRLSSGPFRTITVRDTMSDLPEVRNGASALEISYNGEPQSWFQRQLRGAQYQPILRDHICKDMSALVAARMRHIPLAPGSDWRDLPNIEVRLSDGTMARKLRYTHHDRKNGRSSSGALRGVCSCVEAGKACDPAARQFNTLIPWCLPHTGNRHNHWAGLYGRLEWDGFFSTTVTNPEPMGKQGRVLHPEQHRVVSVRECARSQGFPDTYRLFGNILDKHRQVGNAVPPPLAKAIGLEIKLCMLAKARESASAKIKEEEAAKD

Row | Inh% at 50 μM (human DNMT1) | Inh% at 100 μM (human DNMT1) | melting point | SMILES | further results
1 | 43% | 88% |  | OC(CNCCc1c[nH]c2ccccc12)Cn1c2ccccc2c2ccccc21 (centres unmarked) [DC_05, reference compound] | IC50 (DNMT1): 52 µM
2 | 96% | 98% |  | OC(CNCCc1c[nH]c2ccccc12)COC(Cn1c2ccccc2c2ccccc21)Cn1c2ccccc2c2ccccc21 (centres unmarked) [DC_517, reference compound] | IC50 (DNMT1): 2.3 µM; AUC(0-t) (PK study in SD rats; iv, i.v. (2 mg/kg)): 1020 ± 60.9 ng·h/mL; Tmax (PK study in SD rats; iv, i.v. (2 mg/kg)): 0.08 h; half-life (PK study in SD rats; iv, i.v. (2 mg/kg)): 6.7 ± 0.2 h; bioavailability (PK study in SD rats; po, p.o. 10 mg/kg vs i.v. 2 mg/kg, F = (AUC p.o. × Dose i.v.)/(AUC i.v. × Dose p.o.) × 100%): 38.7 ± 2.9%; AUC(0-t) (PK study in SD rats; po, p.o. (10 mg/kg)): 2080 ± 113 ng·h/mL; Tmax (PK study in SD rats; po, p.o. (10 mg/kg)): 6 h; half-life (PK study in SD rats; po, p.o. (10 mg/kg)): 6.7 ± 0.9 h
3 | 55% | 66% | 109 to 111 °C | OC(CNCCc1ccc(F)cc1)Cn1c2ccccc2c2cc(F)ccc21 (centres unmarked) [WK-2, 1-(3-Fluoro-9H-carbazol-9-yl)-3-((4-fluorophenethyl)amino)propan-2-ol] | 
4 | 71% | 79% | 140 to 142 °C | Oc1ccc(CCNCC(O)Cn2c3ccccc3c3cc(F)ccc32)cc1 (centres unmarked) [WK-3, 4-(2-((3-(3-Fluoro-9H-carbazol-9-yl)-2-hydroxypropyl)amino)ethyl)phenol] | IC50 (DNMT1): 27 µM
5 | 56% | 60% | 55 to 57 °C | COc1ccccc1OCCNCC(O)Cn1c2ccccc2c2cc(F)ccc21 (centres unmarked) [WK-4, 1-(3-fluoro-9H-carbazol-9-yl)-3-((2-(2-methoxyphenoxy)ethyl)amino) propan-2-ol] | 
6 | 68% | 79% | 118 to 120 °C | CC(O)CNCC(O)Cn1c2ccccc2c2cc(F)ccc21 (centres unmarked) [WK-6, 1-(3-Fluoro-9H-carbazol-9-yl)-3-((2-hydroxypropyl)amino)propan-2-ol] | 
7 | 67% | 83% | 119 to 121 °C | CC(CO)NCC(O)Cn1c2ccccc2c2cc(F)ccc21 (centres unmarked) [WK-7, 2-((3-(3-Fluoro-9H-carbazol-9-yl)-2-hydroxypropyl)amino)propan-1-ol] | IC50 (DNMT1): 9.6 µM
8 | 16% | 58% | 100 to 102 °C | C[C@@H](CNCC(O)Cn1c2ccccc2c2cc(F)ccc21)c1ccccc1 (stereo partly drawn) [WK-8, 1-(3-Fluoro-9H-carbazol-9-yl)-3-(((R)-2-phenylpropyl)amino)propan-2-ol] | 
9 | 25% | 53% | 130 to 132 °C | OC(CNCc1ccc(F)cc1)Cn1c2ccccc2c2cc(F)ccc21 (centres unmarked) [WK-9, 1-(3-Fluoro-9H-carbazol-9-yl)-3-((4-fluorobenzyl)amino)propan-2-ol] | 
10 | 5.1% | −9.0% | 71 to 73 °C | CC(C)(C)OC(=O)N1CCN(CC(O)Cn2c3ccccc3c3cc(F)ccc32)C[C@H]1CO (stereo partly drawn) [WK-10, (2S)-tert-butyl 4-(3-(3-fluoro-9H-carbazol-9-yl)-2-hydroxypropyl)-2-(hydroxymethyl)piperazine-1-carboxylate] | 
11 | 41% | 50% | 35 to 37 °C | OC[C@@H]1CN(CC(O)Cn2c3ccccc3c3cc(F)ccc32)CCN1 (stereo partly drawn) [WK-11, 1-(3-Fluoro-9H-carbazol-9-yl)-3-((S)-3-(hydroxymethyl)piperazin-1-yl)propan-2-ol] | 
12 | 27% | 46% | 93 to 95 °C | COc1ccccc1OCCNCC(O)Cn1c2ccc(F)cc2c2cc(F)ccc21 (centres unmarked) [WK-16, 1-(3,6-Difluoro-9H-carbazol-9-yl)-3-((2-(2-methoxyphenoxy)ethyl)amino) propan-2-ol] | 
13 | 68% | 77% | 85 to 87 °C | OC(CNCCc1c[nH]c2ccccc12)Cn1c2ccccc2c2ccncc21 (centres unmarked) [WK-20, 1-((2-(1H-indol-3-yl)ethyl)amino)-3-(9H-pyrido[3,4-b]indol-9-yl)propan-2-ol] | 
14 | 39% | 34% | 107 to 109 °C | OC(CNCCc1c[nH]c2ccccc12)Cn1c2ccccc2c2cccnc21 (centres unmarked) [WK-21, 1-((2-(1H-indol-3-yl)ethyl)amino)-3-(9H-pyrido[2,3-b]indol-9-yl)propan-2-ol] | 
15 | 2.3% | 2.6% | 57 to 59 °C | OC(CNC1CC1)COC(Cn1c2ccccc2c2cc(F)ccc21)Cn1c2ccccc2c2cc(F)ccc21 (centres unmarked) [WK-24, 1-((1,3-Bis(3-fluoro-9H-carbazol-9-yl)propan-2-yl)oxy)-3-(cyclopropylamino)propan-2-ol] | DNMT1 inhibitory activity (human DNMT1): inactive
16 | 8.7% | −16% | 74 to 76 °C | CC(C)(C)OC(=O)N1CCN(CC(O)COC(Cn2c3ccccc3c3cc(F)ccc32)Cn2c3ccc(F)cc3c3cc(F)ccc32)C[C@@H]1CO (stereo partly drawn) [WK-26, (2R)-tert-butyl 4-(3-((1-(3,6-difluoro-9H-carbazol-9-yl)-3-(3-fluoro-9H-carbazol-9-yl)propan-2-yl)oxy)-2-hydroxypropyl)-2-(hydroxymethyl)piperazine-1-carboxylate] | DNMT1 inhibitory activity (human DNMT1): lost its activity
17 | 91% | 91% | 113 to 115 °C | OC(CNCCc1c[nH]c2ccccc12)COC(Cn1c2ccccc2c2cc(F)ccc21)Cn1c2ccc(F)cc2c2cc(F)ccc21 (centres unmarked) [WK-28, 1-((2-(1H-indol-3-yl)ethyl)amino)-3-((1-(3,6-difluoro-9H-carbazol-9-yl)-3-(3-fluoro-9H-carbazol-9-yl)propan-2-yl)oxy)propan-2-ol] | 

Row | SMILES | Inh% at 50 μM (human DNMT1) | Inh% at 100 μM (human DNMT1) | melting point | further results
18 | CCCCOCCCNCC(O)Cn1c2ccccc2c2cc(F)ccc21 (centres unmarked) [WK-5, 1-((3-Butoxypropyl)amino)-3-(3-fluoro-9H-carbazol-9-yl)propan-2-ol] | 59% | 65% | 71 to 73 °C | 
19 | CCCCOCCCNCC(O)Cn1c2ccc(F)cc2c2cc(F)ccc21 (centres unmarked) [WK-17, 1-((3-butoxypropyl)amino)-3-(3,6-difluoro-9H-carbazol-9-yl)propan-2-ol] | 73% | 79% | 94 to 96 °C | 
20 | CCCCOCCCNCC(O)COC(Cn1c2ccccc2c2cc(F)ccc21)Cn1c2ccc(F)cc2c2cc(F)ccc21 (centres unmarked) [WK-29, 1-((3-Butoxypropyl)amino)-3-((1-(3,6-difluoro-9H-carbazol-9-yl)-3-(3-fluoro-9H-carbazol-9-yl)propan-2-yl)oxy)propan-2-ol] | 85% | 80% | 151 to 153 °C | 
